# Publication PMC11714206, “Massively Parallel Screening of Toll/Interleukin‐1 Receptor (TIR)‐Derived Peptides Reveals Multiple Toll‐Like Receptors (TLRs)‐Targeting Immunomodulatory Peptides” (Advanced Science, 2024)
# Target: T1, MAL^TIR (Homo sapiens, UniProt P58753)
# T1 construct: MAL (residues 79–221); 6xHis; made in house; host or cells: E. coli BL21 (DE3)
# Experiment: T‐Surf phage library (P8 and P3) selection against MAL^TIR, four rounds, NGS read counts
# Format: binding
# Conditions: for P8_MAL Rank (after) / P8_MAL Rank (before): P8 library; for P3_MAL Rank (after) / P3_MAL Rank (before): P3 library; for Population: 4th round of selection against MAL TIR, share of NGS reads
# Summary of the method: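 Four panning rounds on TIR domain adsorbed at 5 µg mL^−1; binding 1 h at 20–22 °C, elution with 100 mM HCl. Output: NGS read counts of round‐4 pools versus naïve library.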
# [1] = 4R selection against MAL, rank after grouping
# [2] = 4R selection against MAL, rank before grouping
# [3] = selection against MAL, rank by count after grouping
# [4] = selection against MAL, rank by count before grouping
# [5] = P8_MAL: rank by count after grouping
# [6] = P8_MAL: rank by count before grouping
# [7] = P3_MAL: rank by count after grouping
# [8] = P3_MAL: rank by count before grouping
# [9] = selection against MAL TIR, rank by count after grouping
# [10] = selection against MAL TIR, rank by count before grouping
# [11] = P3_MAL pool: P3 T-Surf phage library
# [12] = selection against MAL, rank after grouping
# [13] = selection against MAL, rank before grouping
# [14] = P8_MAL pool: P8 T-Surf phage library
# T1 sequence (P58753 79-221): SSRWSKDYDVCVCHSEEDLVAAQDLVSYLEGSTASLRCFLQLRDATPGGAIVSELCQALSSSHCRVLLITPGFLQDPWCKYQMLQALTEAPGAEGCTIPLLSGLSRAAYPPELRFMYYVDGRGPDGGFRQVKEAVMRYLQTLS
sequence,measurement,setting,value
QLIQQWIELQLRQLHL,P8_MAL Rank (after),[1],584
same,P8_MAL Rank (before),[2],2356
PESGKLASGAGKSGQT,P3_MAL Rank (after),[1],609
same,P3_MAL Rank (before),[2],2638
SSFREGLWRLLALSTN,P3_MAL Rank (after),[3],723
same,P3_MAL Rank (before),[4],3142
LFFWGSLKHLLRSGCR,P8_MAL Rank (after),[3],691
same,P8_MAL Rank (before),[4],2059
GLSWGPYEWWMGLYDA,P8_MAL Rank (after),[3],716
same,P8_MAL Rank (before),[4],1572
YAFTGHVPGYLVQRGV,P3_MAL Rank (after),[3],757
same,P3_MAL Rank (before),[4],1361
VEPTQVRKLRGAVEKV,P3_MAL Rank (after),[3],743
same,P3_MAL Rank (before),[4],1658
YFLHSCCLAVRKPSI,Rank (after),[5],158
same,Rank (before),[6],1511
YAFTGHLHRYLVQRRS,P3_MAL Rank (after),[3],704
same,P3_MAL Rank (before),[4],1408
NQWRNALTAATNLSGG,Rank (after),[7],119
same,Rank (before),[8],3403
NFLGLLYNELVQAGLH,P8_MAL Rank (after),[9],259
same,P8_MAL Rank (before),[10],2675
NQWRNALTAEANLSGW,Population,[11],0.00413%
SSFREGLWRPPELSEK,P3_MAL Rank (after),[3],748
same,P3_MAL Rank (before),[4],3167
AFFCAQLKRVLGNPTM,Rank (after),[5],102
same,Rank (before),[6],1724
YFLHFLLYDHLRWLGIRAFL,P8_MAL Rank (after),[12],572
same,P8_MAL Rank (before),[13],1498
RKFWAYLFQALANKGS,P8_MAL Rank (after),[12],551
same,P8_MAL Rank (before),[13],2253
YFLHFLLFNRPETNYI,P8_MAL Rank (after),[1],597
same,P8_MAL Rank (before),[2],1467
RNFVAYLLQALAHKCI,Rank (after),[5],420
same,Rank (before),[6],2221
HHKAAMAKRWRNMKN,Rank (after),[7],401
same,Rank (before),[8],2818
AYANFRQGLLRLPELLR,P8_MAL Rank (after),[9],278
same,P8_MAL Rank (before),[10],1946
RLLKWKEALKQRAL,P3_MAL Rank (after),[12],518
same,P3_MAL Rank (before),[13],2525
SSFRDGLWRLLELRKK,P3_MAL Rank (after),[9],269
same,P3_MAL Rank (before),[10],3129
RGLLSHLRHHLLGKDH,Rank (after),[7],450
same,Rank (before),[8],2429
AFLWAQLNSVLGNPTM,Rank (after),[5],156
same,Rank (before),[6],1778
WFYERLVGLILRDTKV,Population,[14],0.0034%
TFLGNLYNALVKAGIH,Rank (after),[5],135
same,Rank (before),[6],2614
WFWEKLRYALTAAANLSGW,Rank (after),[7],149
same,Rank (before),[8],501
PQDLEWFYERLVSLIL,Rank (after),[5],423
same,Rank (before),[6],2328
YAFTGHLHRSLVQSGV,Rank (after),[7],154
same,Rank (before),[8],1381
GFLYQAFAREGLQIFM,Rank (after),[7],164
same,Rank (before),[8],1739
RLQECKEALHQFHSWV,P3_MAL Rank (after),[3],737
same,P3_MAL Rank (before),[4],2549
RLLKWQQAMHQFHRWV,P3_MAL Rank (after),[12],563
same,P3_MAL Rank (before),[13],2488
NNLFNALVSKNIRTFM,P3_MAL Rank (after),[9],258
same,P3_MAL Rank (before),[10],3481
WFLEQLEKILEAHGTT,P8_MAL Rank (after),[3],715
same,P8_MAL Rank (before),[4],1353
DQCRNALTAAANLSGW,P3_MAL Rank (after),[9],201
same,P3_MAL Rank (before),[10],1953
WSYERLVSLILRDTKV,Population,[14],0.0034%
LFFWESLKQLLRSVGR,Population,[14],0.0034%
NHWRNALTAAANLIGW,P8_MAL Rank (after),[9],248
same,P8_MAL Rank (before),[10],2657
AFLCPQLKSVLGNPTI,Rank (after),[5],133
same,Rank (before),[6],1753
TFLGHLYIAMVQAAIH,P8_MAL Rank (after),[12],528
same,P8_MAL Rank (before),[13],2559
LFFWESLKNVLRKPGL,P8_MAL Rank (after),[12],495
same,P8_MAL Rank (before),[13],2116
AFLNTLLKNLTRPPNF,P8_MAL Rank (after),[12],562
same,P8_MAL Rank (before),[13],1912
LFFYESLKHLLRIDCR,P8_MAL Rank (after),[1],646
same,P8_MAL Rank (before),[2],2170
WFYERLVRLILRDNKV,P8_MAL Rank (after),[1],607
same,P8_MAL Rank (before),[2],1280
FDRFHIYFLHFLLFSR,P8_MAL Rank (after),[3],680
same,P8_MAL Rank (before),[4],1087
NQWRNAQTAAAKLSGW,Rank (after),[7],152
same,Rank (before),[8],3399
DHHLDLPLAKRLNRKFW,P3_MAL Rank (after),[12],492
same,P3_MAL Rank (before),[13],1922
RLRKWKEALHQFHSWG,P3_MAL Rank (after),[1],636
same,P3_MAL Rank (before),[2],2547
SFLHFLLFSRPDTEYI,Rank (after),[5],413
same,Rank (before),[6],1436
AFLGTFLIKLMHATIY,P8_MAL Rank (after),[12],570
same,P8_MAL Rank (before),[13],1906
AFLYTFMINLTHPTTF,Rank (after),[5],126
same,Rank (before),[6],1889
AFPDTFLIKLPHPTNV,P8_MAL Rank (after),[1],611
same,P8_MAL Rank (before),[2],1918
VEPTQVRKQSGAVENATG,P3_MAL Rank (after),[3],676
same,P3_MAL Rank (before),[4],1673
EWIREQMSPALKERLP,P3_MAL Rank (after),[1],617
same,P3_MAL Rank (before),[2],2023
RGFLSHLLLHLQAKDH,Rank (after),[7],395
same,Rank (before),[8],2364
FAFTGQMLRYMVRSGL,P3_MAL Rank (after),[3],717
same,P3_MAL Rank (before),[4],1132
SNLRPKVMNYLMRTKT,P3_MAL Rank (after),[3],756
same,P3_MAL Rank (before),[4],1328
RGFLSHLRHHLQEQDH,P3_MAL Rank (after),[9],256
same,P3_MAL Rank (before),[10],2378
MVRVKAFHKRLKTALG,Rank (after),[7],438
same,Rank (before),[8],2922
TFLGPQYNALVQAGTH,P8_MAL Rank (after),[12],484
same,P8_MAL Rank (before),[13],2554
NHSRNALTAAANLSGW,P3_MAL Rank (after),[9],263
same,P3_MAL Rank (before),[10],3433
KLFWAICIMRWCRRAF,Rank (after),[5],175
same,Rank (before),[6],1070
EWIREQLRRSSQSIAN,P3_MAL Rank (after),[9],222
same,P3_MAL Rank (before),[10],801
RGFLAICVIICRRKI,Rank (after),[7],390
same,Rank (before),[8],2406
RNNFFGHLYHALYRIG,P8_MAL Rank (after),[3],685
same,P8_MAL Rank (before),[4],2261
VTKLKKGKSIAPKLLR,Rank (after),[5],469
same,Rank (before),[6],1562
RNFVRICFRRWRIKA,P8_MAL Rank (after),[3],687
same,P8_MAL Rank (before),[4],2235
WLYERLVGLILRYTKV,P8_MAL Rank (after),[1],638
same,P8_MAL Rank (before),[2],1425
NAFTGNLHRYLVQRGV,P3_MAL Rank (after),[9],287
same,P3_MAL Rank (before),[10],3276
AVLYTFLINLTHPTKF,Rank (after),[5],460
same,Rank (before),[6],1954
DPQDLEWFYERLFSQM,P8_MAL Rank (after),[9],234
same,P8_MAL Rank (before),[10],876
ARFKDMIINKWRTALTQAAN,P3_MAL Rank (after),[12],513
same,P3_MAL Rank (before),[13],1847
YFWNALENALAVNNDV,Rank (after),[7],479
same,Rank (before),[8],1335
KELEKYQLAILERDFQ,P3_MAL Rank (after),[12],489
same,P3_MAL Rank (before),[13],3596
ACFWEQRPTVLGKPPM,Rank (after),[5],417
same,Rank (before),[6],1934
YAFTGYLHRYLVQRGG,Rank (after),[7],445
same,Rank (before),[8],1356
WHFHLRLRMLALLQKM,P3_MAL Rank (after),[1],582
same,P3_MAL Rank (before),[2],1294
RHHRGPLGSDLQYHME,P3_MAL Rank (after),[12],521
same,P3_MAL Rank (before),[13],2572
PNLRTKVMNYLIRTKP,P3_MAL Rank (after),[1],643
same,P3_MAL Rank (before),[2],2733
TFLGHLYNTLVQPAIH,P8_MAL Rank (after),[1],620
same,P8_MAL Rank (before),[2],2596
YAFTGHVDRYLVQRGV,P3_MAL Rank (after),[9],285
same,P3_MAL Rank (before),[10],1360
KLQEWRDALTAAANLSGW,P3_MAL Rank (after),[1],600
same,P3_MAL Rank (before),[2],3631
AFLYAFLNNLTHPTTF,Rank (after),[5],139
same,Rank (before),[6],1767
NQWRNALTKVANLV,Population,[11],0.00639%
same,Rank (after),[7],107
same,Rank (before),[8],124
FLNFRGLGGRNYFLGH,P3_MAL Rank (after),[1],628
same,P3_MAL Rank (before),[2],1147
WFYERLVSLLMRDTKV,Rank (after),[5],152
same,Rank (before),[6],1193
TFLGHLSNGLVQAGIH,Rank (after),[5],478
same,Rank (before),[6],2556
RGLLSQLRHHLQAKDH,P3_MAL Rank (after),[12],578
same,P3_MAL Rank (before),[13],2421
WFYEHLVSLILRDTKV,Population,[14],0.00371%
VEQTQVRKPSGAVENA,P3_MAL Rank (after),[1],627
same,P3_MAL Rank (before),[2],1687
WFYERLVRLILRDTKA,Rank (after),[5],174
same,Rank (before),[6],1185
YFLQFLVFRRLGNEYV,P8_MAL Rank (after),[1],656
same,P8_MAL Rank (before),[2],1513
SNLRPKVLNYLMRTKI,P3_MAL Rank (after),[12],531
same,P3_MAL Rank (before),[13],1326
RVFLSHPRHHLQAKDP,P3_MAL Rank (after),[3],700
same,P3_MAL Rank (before),[4],2346
LFFWESLKPLPRRDGR,Rank (after),[5],467
same,Rank (before),[6],2088
AFLCTQLNNVTDTPTL,Rank (after),[5],442
same,Rank (before),[6],1756
RAFSSHLRHHLLAKDQ,P3_MAL Rank (after),[3],678
same,P3_MAL Rank (before),[4],2463
ALQYTILINLTNPTNF,P8_MAL Rank (after),[1],665
same,P8_MAL Rank (before),[2],1962
WFYERLVSLILRHTKL,Rank (after),[5],187
same,Rank (before),[6],1155
AFFWEQLRTLLSKPTM,Rank (after),[5],433
same,Rank (before),[6],1673
SFFWNKLRYILPAPNN,P3_MAL Rank (after),[1],596
same,P3_MAL Rank (before),[2],3013
PNLRTKVLSYPMRTMT,P3_MAL Rank (after),[3],741
same,P3_MAL Rank (before),[4],2707
YAFTGHLHRYLVQPGG,P3_MAL Rank (after),[9],249
same,P3_MAL Rank (before),[10],1409
